# Reference: publication PMC3681751, “Identification of a Novel Antimicrobial Peptide from Human Hepatitis B Virus Core Protein Arginine-Rich Domain (ARD)” (PLoS Pathogens, 2013)
# Like-named read-outs stand apart in the source and are kept apart here. Residues, ends and D or L forms follow the SMILES beside them.
# Legend:
# [1] = test system: P. aeruginosa (ATCC 27853); type: cell-based, Pseudomonas aeruginosa
# How it was run: (§1)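 Mid-log cultures grown in Mueller–Hinton broth were diluted to 10^6 CFU/ml in 10 mM sodium phosphate, 50 mM NaCl, pH 7.2, mixed with serially diluted HBc ARD peptides, and held 3 hours at 37°C without shaking. Survivors were plated on Mueller–Hinton agar overnight at 37°C to define MBC; triplicates.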
# [2] = test system: P. aeruginosa (ATCC 9027); type: cell-based, Pseudomonas aeruginosa
# How it was run: as §1
# C. albicans (ATCC 10231) = type: cell-based, Candida albicans
# Procedure: The antimicrobial activities of HBc ARD peptides were tested using a number of bacterial strains from ATCC, including Pseudomonas aeruginosa Migula strain (ATCC 27853, ampicillin-resistant), Pseudomonas aeruginosa Migula strain (ATCC 9027, ampicillin-resistant), Klebsiella pneumoniae strain (ATCC 17593), Escherichia coli strain (ATCC 25922), Staphylococcus aureus subsp. strain (ATCC 25923, methicillin-resistant), Staphylococcus aureus subsp. strain (ATCC 29213, methicillin-resistant), Staphylococcus aureus subsp. strain (ATCC 19636, methicillinresistant), and Candida albicans strain (ATCC 10231).
# All peptides were purchased from Yao-Hong Biotechnology Inc. (Taipei, Taiwan). Vendors provided data of peptide characterizations, including HPLC and Mass (data not shown). Antimicrobial activity was determined as described with some modifications as detailed below. Bacteria were grown overnight in Mueller–Hinton broth (Difco) at 37°C, and during the mid-logarithmic phase, bacteria were diluted to 10^6 CFU (colony formation unit)/ml in phosphate buffer (10 mM sodium phosphate and 50 mM sodium chloride, pH 7.2). Peptides were serially diluted in the same buffer. Fifty microliter (µl) of bacteria was mixed with fifty µl of peptides at varying concentrations followed by incubation at 37°C for 3 hours without shaking. At the end of incubation, bacteria were placed on Mueller-Hinton broth agar plates, and allowed growth at 37°C overnight for measurement of minimal bactericidal concentration (MBC). […] All peptides were tested in triplicate.
# K. pneumonia = experiment: SYTOX Green uptake (membrane permeabilization); type: cell-based, Klebsiella pneumoniae; details: 4 µM peptide; 10^7 CFU, 1 µM SYTOX Green, 37°C
# Procedure: Briefly, bacteria (10^7 CFU) were prepared and mixed with 1 µM SYTOX Green (Invitrogen) for 15 minutes in the dark. […] Melittin (Sigma), the major toxin of bee venom, was used as a positive control to provide maximal permeabilization.
# P. aeruginosa = experiment: Effect of added LPS on bactericidal activity; type: cell-based, Pseudomonas aeruginosa; details: 2 µM peptide (1×MBC), LPS from P. aeruginosa or E. coli at 50 µg/ml, 3 hours, triplicates
# Procedure: To determine whether LPS of Gram-negative bacteria could serve as a potential target of HBc147-183, LPS (0.05 to 50 µg/ml) from either P. aeruginosa or E. coli (Sigma) were incubated with both P. aeruginosa and 2 µM HBc147-183 for three hours, respectively. […] In addition, HBc147-183 preferentially bound to the LPS from P. aeruginosa, rather than that from E. coli. However, the addition of anti-LPS antibody (Genetex Co.) cannot sufficiently neutralize the bactericidal activity of HBc147-183 (Figure 5). […] Alternatively, HBc147-183 and the anti-LPS polyclonal antibody used here could bind predominantly to two different epitopes on the LPS.
# Figure 5 Dose response effects of LPS and LPS antibody (triangle) on the bactericidal activity of HBc147-183. LPS from P. aeruginosa (square) and E. coli (diamond), and LPS antibody (triangle) were mixed with P. aeruginosa and HBc147-183 (1×MBC) for 3 hours. The bacteria were then plated on MH agar for the measurement of viability. Samples were measured in triplicates.
# HEK293 cells = experiment: Cytotoxicity, MTT assay; type: cell-based, human; details: 1 hour at 37°C; HBc147-183 at 100 µM, melittin at 3.125 µM; triplicates
# Procedure: (§2) Cytotoxicity was measured for HepG2, Huh7, HEK293, and Vero cells by MTT assay. Cells were seeded at 10^4 cells/well in a 96-well plate and serial dilutions of peptides were added into each well. PBS was used as a negative control and melittin was used as a positive control. After 1 hour of incubation, the medium were replaced by fresh medium containing 10% MTT solution (Promega), and the plate was incubated for 4 hours in 5% CO2 at 37°C. The absorbance at the wavelength of 595 nm was measured by an ELISA reader (Bio-Rad model 680).
# HepG2 cells = experiment: Cytotoxicity, MTT assay; type: cell-based, human; details: 1 hour at 37°C; HBc147-183 at 100 µM, melittin at 3.125 µM; triplicates
# Procedure: as §2
# Huh7 cells = experiment: Cytotoxicity, MTT assay; type: cell-based, human; details: 1 hour at 37°C; HBc147-183 at 100 µM, melittin at 3.125 µM; triplicates
# Procedure: as §2
# [3] = ampicillin-resistant strain, 3 h at 37°C in phosphate buffer pH 7.2, triplicate
structure (smiles),measurement,setting,value
CC(C)[C@H](NC(=O)[C@@H](NC(=O)[C@@H](N)[C@@H](C)O)C(C)C)C(=O)N[C@@H](CCCNC(=N)N)C(=O)N[C@@H](CCCNC(=N)N)C(=O)N[C@@H](CCCNC(=N)N)C(=O)NCC(=O)N[C@@H](CCCNC(=N)N)C(=O)N[C@@H](CO)C(=O)N1CCC[C@H]1C(=O)N[C@@H](CCCNC(=N)N)C(=O)N[C@@H](CCCNC(=N)N)C(=O)N[C@@H](CCCNC(=N)N)C(=O)N[C@H](C(=O)N1CCC[C@H]1C(=O)N[C@@H](CO)C(=O)N1CCC[C@H]1C(=O)N[C@@H](CCCNC(=N)N)C(=O)N[C@@H](CCCNC(=N)N)C(=O)N[C@@H](CCCNC(=N)N)C(=O)N[C@@H](CCCNC(=N)N)C(=O)N[C@@H](CO)C(=O)N[C@@H](CCC(N)=O)C(=O)N[C@@H](CO)C(=O)N1CCC[C@H]1C(=O)N[C@@H](CCCNC(=N)N)C(=O)N[C@@H](CCCNC(=N)N)C(=O)N[C@@H](CCCNC(=N)N)C(=O)N[C@@H](CCCNC(=N)N)C(=O)N[C@@H](CO)C(=O)N[C@@H](CCC(N)=O)C(=O)N[C@@H](CO)C(=O)N[C@@H](CCCNC(=N)N)C(=O)N[C@@H](CCC(=O)O)C(=O)N[C@@H](CO)C(=O)N[C@@H](CCC(N)=O)C(=O)N[C@@H](CS)C(=O)O)[C@@H](C)O [HBc147-183] (H-TVVRRRGRSPRRRTPSPRRRRSQSPRRRRSQSRESQC-OH; N-terminus and C-terminus assumed),"Antimicrobial activity, MBC","[1]; ATCC 27853, 3 h, pH 7.2",2 to 4 µM
same,"Antimicrobial activity, MBC",[1]; [3],9.18 to 18.36 µg/mL
same,MBC against P. aeruginosa,"[2]; ATCC 9027, 3 h",lower than 4 µM
same,"Antimicrobial activity, MBC","[2]; ATCC 9027, 3 h, pH 7.2",2 µM
same,"Antimicrobial activity, MBC",[2]; [3],9.18 µg/mL
same,"Antimicrobial activity, MBC","C. albicans (ATCC 10231); ATCC 10231, 3 h, pH 7.2",~8 µM
same,"Antimicrobial activity, MBC","C. albicans (ATCC 10231); fungi, 3 h at 37°C in phosphate buffer pH 7.2, triplicate",~36.7 µg/mL
same,Membrane permeabilization (SYTOX Green uptake),K. pneumonia,not able to induce membrane permeabilization
same,Bactericidal activity in the presence of LPS,P. aeruginosa,significantly reduced
same,Cell viability / cytotoxicity (MTT),HEK293 cells,low level of cytotoxicity
same,Cell viability / cytotoxicity (MTT),HepG2 cells,low level of cytotoxicity
same,Cell viability / cytotoxicity (MTT),Huh7 cells,low level of cytotoxicity
